Experimental data as given in patent US12037322B2, “AHR agonists” (Eli Lilly and Company, priority 2021, dated 2024).

Each compound was assayed against T1, hAHR (Homo sapiens, UniProt P35869) (assay: hAHR nuclear translocation assay). Conditions: Jump-In T-REx HEK293 cells expressing AhR-EGFP; 45 min incubation; ratio of EGFP intensity in nuclear over cytosol; 20-point curve.
T1 construct: expressed in transfected cells
T1 sequence (P35869 11-848): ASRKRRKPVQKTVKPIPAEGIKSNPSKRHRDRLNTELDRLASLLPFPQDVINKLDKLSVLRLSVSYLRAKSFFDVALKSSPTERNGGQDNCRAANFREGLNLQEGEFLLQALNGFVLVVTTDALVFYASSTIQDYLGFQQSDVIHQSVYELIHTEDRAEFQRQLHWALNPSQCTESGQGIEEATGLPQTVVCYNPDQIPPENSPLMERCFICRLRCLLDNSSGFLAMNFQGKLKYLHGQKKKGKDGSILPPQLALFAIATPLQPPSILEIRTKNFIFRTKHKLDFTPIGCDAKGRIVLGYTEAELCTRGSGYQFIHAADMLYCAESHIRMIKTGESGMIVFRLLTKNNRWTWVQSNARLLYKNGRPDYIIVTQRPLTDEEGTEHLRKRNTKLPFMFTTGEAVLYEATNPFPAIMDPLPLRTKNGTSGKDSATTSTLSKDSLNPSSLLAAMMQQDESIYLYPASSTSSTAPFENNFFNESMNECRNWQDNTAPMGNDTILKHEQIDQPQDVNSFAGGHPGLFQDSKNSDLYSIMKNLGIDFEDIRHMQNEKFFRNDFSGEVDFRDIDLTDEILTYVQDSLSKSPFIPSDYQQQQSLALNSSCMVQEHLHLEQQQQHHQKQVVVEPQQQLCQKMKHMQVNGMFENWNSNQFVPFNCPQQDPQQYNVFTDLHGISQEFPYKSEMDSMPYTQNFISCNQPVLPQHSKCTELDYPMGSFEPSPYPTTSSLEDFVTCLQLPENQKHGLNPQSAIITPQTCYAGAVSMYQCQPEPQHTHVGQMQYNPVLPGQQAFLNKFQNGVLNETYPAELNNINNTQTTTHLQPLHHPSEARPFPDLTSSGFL
Assay type: cell-based
Summary of the method: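 HEK293 cells with doxycycline-induced AhR-EGFP fusion treated 45 min at 37° C with compound (20-point 1:2 series, 0.2% DMSO) in DMEM/0.1% BSA, then methanol-fixed. Nuclear-to-cytosolic EGFP ratio imaged by high-content microscopy and fitted to a 4-parameter logistic for agonist potency.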

Going from `C[C@@H]1CCc2c1cc(C(=O)Nc1ncc(Cl)cn1)c(=O)n2C` [Example 25, (5R)-N-(5-Chloropyrimidin-2-yl)-1,5-dimethyl-2-oxo-6,7-dihydro-5H-cyclopenta[b]pyridine-3-carboxamide] to `C[C@@H]1CCc2c1cc(C(=O)Nc1ncco1)c(=O)n2C` [Example 74, (5R)-1,5-Dimethyl-N-oxazol-2-yl-2-oxo-6,7-dihydro-5H-cyclopenta[b]pyridine-3-carboxamide], the EC50 rises from 1.91 nM to 19 nM (9.9-fold). The first is the more potent here.

`CC1CCc2c1c(O)c(C(=O)Nc1ccc(F)cn1)c(=O)n2C` (stereo not drawn) [Example 26, N-(5-Fluoro-2-pyridyl)-4-hydroxy-1,5-dimethyl-2-oxo-6,7-dihydro-5H-cyclopenta[b]pyridine-3-carboxamide] and `CC1CCc2c1c(O)c(C(=O)Nc1ccc(C(F)(F)F)cn1)c(=O)n2C` (stereo not drawn) [Example 33, 4-Hydroxy-1,5-dimethyl-2-oxo-N-[5-(trifluoromethyl)-2-pyridyl]-6,7-dihydro-5H-cyclopenta[b]pyridine-3-carboxamide] are within 1.5-fold of each other in EC50: 2.87 nM for the first, 2.64 nM for the second.

Going from `COc1cnc(NC(=O)c2c(O)c3c(n(C)c2=O)CCC3C)nc1` (stereo not drawn) [Example 27, 4-Hydroxy-N-(5-methoxypyrimidin-2-yl)-1,5-dimethyl-2-oxo-6,7-dihydro-5H-cyclopenta[b]pyridine-3-carboxamide] to `CC1CCc2c1c(O)c(C(=O)Nc1ncc(F)cn1)c(=O)n2C` (stereo not drawn) [Example 30, N-(5-Fluoropyrimidin-2-yl)-4-hydroxy-1,5-dimethyl-2-oxo-6,7-dihydro-5H-cyclopenta[b]pyridine-3-carboxamide], the EC50 falls from 6.41 nM to 1.62 nM (4-fold).

Compared with `CC1CCc2c1c(O)c(C(=O)Nc1ccc(C(F)(F)F)nc1)c(=O)n2C` (stereo not drawn) [Example 28, 4-Hydroxy-1,5-dimethyl-2-oxo-N-[6-(trifluoromethyl)-3-pyridyl]-6,7-dihydro-5H-cyclopenta[b]pyridine-3-carboxamide], `CC1CCc2c1c(O)c(C(=O)Nc1nccc(C(F)(F)F)n1)c(=O)n2C` (stereo not drawn) [Example 31, 4-Hydroxy-1,5-dimethyl-2-oxo-N-[4-(trifluoromethyl)pyrimidin-2-yl]-6,7-dihydro-5H-cyclopenta[b]pyridine-3-carboxamide] is 1.5-fold lower in EC50: 3.68 nM for the first, 2.4 nM for the second. The second is the more potent here.

Compared with `CC1CCc2c1c(O)c(C(=O)Nc1ncccc1F)c(=O)n2C` (stereo not drawn) [Example 29, N-(3-Fluoro-2-pyridyl)-4-hydroxy-1,5-dimethyl-2-oxo-6,7-dihydro-5H-cyclopenta[b]pyridine-3-carboxamide], `CC1CCc2c1c(O)c(C(=O)Nc1ncc(C(F)(F)F)cn1)c(=O)n2C` (stereo not drawn) [Example 32, 4-Hydroxy-1,5-dimethyl-2-oxo-N-[5-(trifluoromethyl)pyrimidin-2-yl]-6,7-dihydro-5H-cyclopenta[b]pyridine-3-carboxamide] is 2.6-fold lower in EC50: 2.23 nM for the first, 0.845 nM for the second.

First: Cn1c2c(c(O)c(C(=O)Nc3ccccn3)c1=O)CC(C)(C)C2 [Example 42, 4-Hydroxy-1,6,6-trimethyl-2-oxo-N-(2-pyridyl)-5,7-dihydrocyclopenta[b]pyridine-3-carboxamide]
Second: Cn1c2c(cc(C(=O)Nc3ccccn3)c1=O)CC(C)(C)C2 [Example 45, 1,6,6-Trimethyl-2-oxo-N-(2-pyridyl)-5,7-dihydrocyclopenta[b]pyridine-3-carboxamide]
The EC50 of the first is 1.7-fold lower: 9.41 nM for the first, 16.2 nM for the second. The first is the more potent here.

Going from `Cn1c2c(c(O)c(C(=O)Nc3ncc(F)cn3)c1=O)C(C)(C)CC2` [Example 43, N-(5-Fluoropyrimidin-2-yl)-4-hydroxy-1,5,5-trimethyl-2-oxo-6,7-dihydrocyclopenta[b]pyridine-3-carboxamide] to `Cn1c2c(c(O)c(C(=O)Nc3ccc(F)cn3)c1=O)C(C)(C)CC2` [Example 44, N-(5-Fluoro-2-pyridyl)-4-hydroxy-1,5,5-trimethyl-2-oxo-6,7-dihydrocyclopenta[b]pyridine-3-carboxamide], the EC50 rises from 0.973 nM to 2.38 nM (2.4-fold). The first is the more potent here.

Going from `Cn1c2c(cc(C(=O)Nc3ncccn3)c1=O)C(C)(C)CC2` [Example 46, 1,5,5-Trimethyl-2-oxo-N-pyrimidin-2-yl-6,7-dihydrocyclopenta[b]pyridine-3-carboxamide] to `CC1Cc2cc(C(=O)Nc3ncccn3)c(=O)n(C)c2C1` (stereo not drawn) [Example 79, 1,6-Dimethyl-2-oxo-N-pyrimidin-2-yl-6,7-dihydro-5H-cyclopenta[b]pyridine-3-carboxamide], the EC50 falls from 31.5 nM to 20.3 nM (1.6-fold).

`Cn1c2c(cc(C(=O)Nc3ccccc3)c1=O)CC(C)(C)C2` [Example 47, 1,6,6-Trimethyl-2-oxo-N-phenyl-5,7-dihydrocyclopenta[b]pyridine-3-carboxamide] and `Cn1c2c(cc(C(=O)Nc3ccccc3)c1=O)CC(C)(C)CC2` [Example 105, 1,6,6-Trimethyl-2-oxo-N-phenyl-7,8-dihydro-5H-quinoline-3-carboxamide] are within 1.5-fold of each other in EC50: 0.803 nM for the first, 0.64 nM for the second.

Going from `Cn1c2c(cc(C(=O)Nc3ccc(F)cn3)c1=O)CC(C)(C)C2` [Example 48, N-(5-Fluoro-2-pyridyl)-1,6,6-trimethyl-2-oxo-5,7-dihydrocyclopenta[b]pyridine-3-carboxamide] to `Cn1c2c(cc(C(=O)Nc3ccc(F)cn3)c1=O)CC(C)(C)CC2` [Example 49, N-(5-Fluoro-2-pyridyl)-1,6,6-trimethyl-2-oxo-7,8-dihydro-5H-quinoline-3-carboxamide], the EC50 falls from 11.3 nM to 2.03 nM (5.6-fold). The second is the more potent here.

First: Cc1nc2ccc(NC(=O)c3cc4c(n(C)c3=O)CCC(C)(C)C4)cc2o1 [Example 50, 1,6,6-Trimethyl-N-(2-methyl-1,3-benzoxazol-6-yl)-2-oxo-7,8-dihydro-5H-quinoline-3-carboxamide]
Second: Cn1c2c(cc(C(=O)Nc3ccccc3)c1=O)COC(C)(C)C2 [Example 51, 1,7,7-Trimethyl-2-oxo-N-phenyl-5,8-dihydropyrano[4,3-b]pyridine-3-carboxamide]
The EC50 of the first is 1.9-fold higher: 8.27 nM for the first, 4.35 nM for the second.

Compared with `CC1CCc2cc(C(=O)Nc3ccccc3)c(=O)n(C)c21` (stereo not drawn) [Example 52, 1,7-Dimethyl-2-oxo-N-phenyl-6,7-dihydro-5H-cyclopenta[b]pyridine-3-carboxamide], `C[C@@H]1CCc2c1cc(C(=O)Nc1ccccc1)c(=O)n2C` [Example 66, (5R)-1,5-Dimethyl-2-oxo-N-phenyl-6,7-dihydro-5H-cyclopenta[b]pyridine-3-carboxamide] is 12-fold lower in EC50: 6.4 nM for the first, 0.525 nM for the second. The second is the more potent here.

`C[C@H]1CCc2c1cc(C(=O)Nc1ccccc1)c(=O)n2C` [Example 67, (5S)-1,5-Dimethyl-2-oxo-N-phenyl-6,7-dihydro-5H-cyclopenta[b]pyridine-3-carboxamide] and `Cn1c2c(cc(C(=O)Nc3ccccc3)c1=O)CCCC2` [Example 104, 1-Methyl-2-oxo-N-phenyl-5,6,7,8-tetrahydroquinoline-3-carboxamide] are within 1.5-fold of each other in EC50: 0.5 nM for the first, 0.502 nM for the second.

First: C[C@H]1CCc2c1cc(C(=O)Nc1ncco1)c(=O)n2C [Example 75, (5S)-1,5-Dimethyl-N-oxazol-2-yl-2-oxo-6,7-dihydro-5H-cyclopenta[b]pyridine-3-carboxamide]
Second: Cn1c2c(cc(C(=O)Nc3ncccn3)c1=O)CCCC2 [Example 103, 1-Methyl-2-oxo-N-pyrimidin-2-yl-5,6,7,8-tetrahydroquinoline-3-carboxamide]
The EC50 of the first is 1.5-fold lower: 17.7 nM for the first, 27 nM for the second.

Going from `Cn1c2c(cc(C(=O)Nc3ccccc3)c1=O)COCC2` [Example 106, 1-Methyl-2-oxo-N-phenyl-7,8-dihydro-5H-pyrano[4,3-b]pyridine-3-carboxamide] to `CCN1CCc2c(cc(C(=O)Nc3ccccc3)c(=O)n2C)C1` [Example 107, 6-Ethyl-1-methyl-2-oxo-N-phenyl-7,8-dihydro-5H-1,6-naphthyridine-3-carboxamide], the EC50 rises from 25.9 nM to 108 nM (4.2-fold).
